# Experimental data reported in patent publication US11331368B2, “Angiotensin receptor agonists and uses thereof” (Monash University, priority 2017, dated 2022).
# “Also recorded” adds a separate entry of the source.
# Assays:
# Assay type in all cases: in vivo, mouse
# [1] = test system: male FVB/N mice on high salt diet, heart; assay: High salt (5%) diet intervention model, heart
# Outline: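 Male FVB/N mice fed 5% salt diet for 8 weeks (controls 0.35% NaCl); from week 4, AT2R agonist at 75 pmol/kg/min or saline given subcutaneously by osmotic minipump for 4 weeks on continued high salt. Heart collagen by picrosirius red, % interstitial staining averaged over eight fields; immunofluorescence for fibrosis/inflammation markers.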
# [2] = test system: male FVB/N mice on high salt diet, liver; assay: High salt (5%) diet intervention model, liver; settings: weeks 5-8, peptides 75 pmol/kg/min s.c., Cand 2 mg/kg/day, captopril 3 mg/kg/day
# Description: (§1) C) In the intervention (or reversal) model, male FVB/N mice were treated with selective AT2Rs agonists after the establishment of cardiovascular disease using a high salt diet, in order to reverse cardiovascular pathologies. In some experiments, the ACE inhibitor captopril (dose) or the ARB candesartan cilexetil (dose) were given for 4 weeks in drinking water. Organs examined included heart, kidney and liver and these were compared to either untreated mice or high salt-fed mice that were treated with saline.
# (§2) Mice were placed on either a normal rodent diet (0.35% NaCl) which acted as control or a high salt diet (5% sodium in food chow) for 8 weeks. After 4 weeks, mice were also treated subcutaneously (via osmotic mini-pump) with either saline or an AT2R agonist (75 pmol/kg/min subcutaneously) for 4 weeks. Mice continued to be fed a high salt diet whilst receiving these treatments.
# Liver sections used either picrosirius red staining or Masson's trichome staining as described above. Higher concentrations of picrosirius red were often used under polarized light microscopy. The liver was removed and sectioned with half of the liver placed in 10% formalin and the rest frozen in liquid nitrogen before being stored in ˜80° C. freezer for future use. Formalin fixed, paraffin embedded livers were sectioned at thickness of 4 μm and were stained with Masson's trichrome according to standard procedures for analysis of liver fibrosis. […] Sections were re-fixed in Bouin's solution for 1 hour at 56° C. to improve staining quality then rinsed in running tap water for 5-10 minutes to remove yellow colour. Following this, sections were stained in Weigert's iron hematoxylin working solution for 10 minutes. Rinsed in running warm tap water for 10 minutes. Washed in distilled water. Stained in Biebrich scarlet-acid fuchsin solution for 10-15 minutes.
# Washed in distilled water. Differentiated in phosphomolybdic-phosphotungstic acid solution for 10-15 minutes or until collagen was no longer red. Sections were transferred directly (without rinse) to aniline blue solution and stained for 5-10 minutes. Rinsed briefly in distilled water and differentiated in 1% acetic acid solution for 2-5 minutes. Washed in distilled water. […] Mounted with DPX mounting medium. Quantification of liver fibrosis was performed using images captured with the Aperio scanner (Monash Histology Platform, Monash University), with ×5 magnification. Each liver section had 5 different fields of view photographed at this magnification. Percentage of interstitial and perivascular collagen was analysed and quantified using ImageJ 1.48 software (Java, NIH), and the percentage from 5 random fields of view were averaged for final percentage of collagen for that particular animal. All analysis of collagen expression was conducted in a blinded fashion.
# [3] = test system: male FVB/N mice on high salt diet, kidney; assay: High salt (5%) diet intervention model, kidney; settings: 75 pmol/kg/min s.c., weeks 5-8
# [4] = Systolic blood pressure by tail-cuff in high salt-fed mice; settings: data not shown
# Description: The incision area was sutured with 6/0 DY silk ([…] Ltd) and antibiotic powder applied ([…], Pfizer) followed by intramuscular injection of the analgesic Cartrophen (0.1 ml of a 1.5 mg/ml stock solution; Biopharm Australia). Systolic blood pressure (SBP) was measured using non-invasive tail-cuff plethysmography apparatus (MC4000 Blood Pressure Analysis System, Hatteras Instrument Inc) before drug treatment (week 0), and then fortnightly. At the end of the 8 week treatment period mice were weighed before being killed by overdose of isoflurane inhalation and cervical dislocation. […] To this end, modified Ang peptides of interest were dissolved in saline and delivered subcutaneously via an implanted osmotic minipump and systolic blood pressure (SBP) was measured fortnightly.
# [5] = test system: male FVB/N mice on high salt diet, kidney; assay: High salt (5%) diet intervention model, kidney; settings: 75 pmol/kg/min s.c., weeks 5-8; remark: listed apart in the source
# Description: as §1, §2
# To measure collagen deposition, frozen sections of heart, kidney or aorta (all 5 μm thickness) were air dried for 10 minutes and were brought through 3 times xylene (2 minutes each), and 3 times absolute alcohol washes before being rinsed in tap H2O for 30 seconds. Staining with an optimal concentration of picrosirius red (in this instance 0.05% picrosirius red diluted in saturated picric acid) was performed and left for an hour. Sections were then rinsed in water and differentiated in 0.01M HCl for 2 minutes, followed by dehydration via 3 times absolute alcohol washes. Then, slides were brought through 3 times xylene washes before being cover slipped according to standard histological techniques using DPX as the mounting medium. Images were taken under ×20 magnification, using bright field (Olympus, BX51) and circularized polarized light microscopy (DM IRB, Leica) while percentage of positive interstitial collagen staining per total field of view was quantified using ImageJ 1.46 software (Java, NIH), and averaged out from a total of eight views as the final percentage collagen content in a particular animal.
# Kidney sections used either picrosirius red staining as described above or using Mason's Trichrome staining as described below.
# Formalin fixed, paraffin embedded kidneys were sectioned at thickness of 4 μm and were stained with Masson's trichrome according to standard procedures for analysis of kidney fibrosis. […] Sections were re-fixed in Bouin's solution for 1 hour at 56° C. to improve staining quality then rinsed in running tap water for 5-10 minutes to remove yellow colour. Following this, sections were stained in Weigert's iron hematoxylin working solution for 10 minutes. Rinsed in running warm tap water for 10 minutes. Washed in distilled water. Stained in Biebrich scarlet-acid fuchsin solution for 10-15 minutes. Washed in distilled water. Differentiated in phosphomolybdic-phosphotungstic acid solution for 10-15 minutes or until collagen was no longer red. Sections were transferred directly (without rinse) to aniline blue solution and stained for 5-10 minutes. Rinsed briefly in distilled water and differentiated in 1% acetic acid solution for 2-5 minutes. Washed in distilled water. […] Mounted with DPX mounting medium.
# Quantification of kidney fibrosis was performed using images captured with the Aperio scanner (Monash Histology Platform, Monash University), with ×5 magnification. Each kidney section had 5 different fields of view photographed at this magnification. Percentage of tubulointerstitial collagen was analysed and quantified using ImageJ 1.48 software (Java, NIH), and the percentage from 5 random fields of view were averaged for final percentage of collagen for that particular animal. All analysis of collagen expression was conducted in a blinded fashion.
structure (smiles),measurement,setting,value
"CC[C@H](C)[C@@H](CC(=O)N[C@@H](Cc1c[nH]cn1)C(=O)N1CCC[C@H]1C(=O)N[C@@H](Cc1ccccc1)C(=O)O)NC(=O)[C@H](Cc1ccc(O)cc1)NC(=O)[C@@H](NC(=O)[C@H](CCCNC(=N)N)NC(=O)[C@@H](N)CC(=O)O)C(C)C [βIle-Ang II, Asp-Arg-Val-Tyr-β-Ile-His-Pro-Phe]",TGF-β1 protein in the heart (Western blot),"[1]; 75 pmol/kg/min s.c., weeks 5-8",significantly lower TGF-β1 protein
same,myofibroblast differentiation in heart (α-SMA),"[1]; 75 pmol/kg/min s.c., weeks 5-8",reduced myofibroblast differentiation
same,MMP-13 protein expression in heart (Western blot),"[1]; weeks 5-8, peptide 75 pmol/kg/min s.c., Cand 2 mg/kg/day, captopril 3 mg/kg/day",normalised MMP-13 to levels observed in the normal salt group
same,macrophage infiltration/expression in heart (F4/80),"[1]; weeks 5-8, peptide 75 pmol/kg/min s.c., Cand 2 mg/kg/day, captopril 3 mg/kg/day, listed as β-Ile^5-Ang II",reversed by all agents; also recorded: reduced macrophage infiltration/expression
same,expression of P-IκBα (marker for NFκB activation) in heart,"[1]; weeks 5-8, peptides 75 pmol/kg/min s.c., Cand 2 mg/kg/day, captopril 3 mg/kg/day, listed as β-Ile^5-Ang II",significantly reduced expression of P-IκBα
same,cardiac fibrosis (picrosirius red),"[1]; weeks 5-8 of high salt diet, peptides 75 pmol/kg/min s.c. mini-pump, Cand 2 mg/kg/day, captopril 3 mg/kg/day in drinking water, listed as β-Ile^5-Ang II",reversed high salt-induced cardiac fibrosis
same,liver steatosis (Oil Red O),[2],significantly reduced excess lipid accumulation
same,"liver fibrosis (picrosirius red, polarized light)",[2]; listed as 8-Ile^5-Ang II,reversed collagen accumulation to levels seen in normal salt group
same,"liver fibrosis (picrosirius red, polarized light)",[2]; listed as β-Ile^5-Ang II,similarly inhibited the pro-fibrotic effects of high salt in the liver
same,macrophage infiltration in kidney (F4/80),[3],reversed
same,systolic blood pressure (SBP),[4],did not alter SBP
same,kidney tubulointerstitial fibrosis (Masson's trichrome),[5],reversed high salt-induced tubulointerstitial fibrosis
